Experimental findings from patent publication US20240108617A1, “AN INHALABLE DRY POWDER COMPOSITION FOR PULMONARY DISEASES” (GLENMARK SPECIALTY S.A., priority 2019, published 2024) are described below.

The test system of data set [1] is IL-17. As to the kind of experiment: Ex-vivo IL-17 inhibition from peripheral blood (whole blood) from COPD patients. Format: cell-based. As to conditions: Homo sapiens. How it is done:
• 1. ˜8 mL whole blood was collected per patient. • 2. Human whole blood was diluted 1:1 with 0.85% NaCl. • 3. Diluted blood was loaded on a 96 well plate. Blood was pre-incubated for 60 minutes at 37° C. with serial dilutions of Compound (I). • 4. It was then transferred to 96 well plate coated with Anti-human CD3 antibody (final concentration—10 μg/mL). This was followed by the addition of Anti-human CD28 antibody (2 μg/mL). • 5. Cells were incubated for 48 h in the incubator at 37° C. with 5% CO2. The plates were spun at 1200 rpm at 4° C. for 12 minutes, supernatant collected and used for IL17 estimation by ELISA.
(§1) Calculations: IL17 cytokine concentration in the supernatant was determined using linear regression from the standard graph and subsequently multiplied with respective dilution factors. Fold response (FR) was calculated as pg/ml of hIL17 in sample (treated) wells over pg/ml of hIL17 in Basal wells.
Percent Inhibition for each set treated with test compound was calculated by using the formula
Percent Inhibition={100−(pg/mL of test compound/pg/mL of induced×100)}
IC50 values were calculated from concentration response curves by nonlinear regression analysis using GraphPad Prism software.

A short description of data set [2]: Compatibility with inhalation grades of lactose monohydrate. Format: physicochemical. As to conditions: Respitose ML006, Respitose SV010, Lactohale 201, Lactohale 200, Inhalac 230, Inhalac 70. The text has this: It was observed that compound (I) is compatible with different commercially available inhalation grades of lactose monohydrate including Respitose ML006, Respitose SV010, Lactohale 201, Lactohale 200, Inhalac 230, Inhalac 70. Lactose Monohydrate is selected as a diluent for compound (I) (micronized) with the particle size d90 of ≤5 microns.

In data set [3] the test system is IL-17. As to the kind of experiment: Ex-vivo IL-17 inhibition from bronchoalveolar lavage (BAL) cells from COPD patients. Format: cell-based, human. As to conditions: for IC50: stimulated BAL cells from COPD patients, read-out: IC50, IL-17 release. As to the method: The test compound was prepared by 10 mM stock of Compound (I) was prepared in 100% DMSO. The saline was prepared by 0.85 gm of NaCl weighted and dissolved in 100 mL distilled water and adjusted the pH 7.0 to pH 7.4. It was then filter sterilized.
Flexible fiber optic bronchoscopy was performed after valid consent and lignocaine nebulization. Patient was given 2 mg of IV midazolam and monitored under pulse oximetry and cardiac monitor. BAL fluid was collected with repeated aspirations of saline preferably from middle lobe.
BALF was passed through cell strainer to remove debris and mucus. BAL cells were isolated from BALf by centrifugation at 800 rpm for 10 min.
BAL cells were seeded at a density of 1×10^5 cells-2×10^5 cells/well in a 96 well plate coated with Anti-human CD3 antibody (10 μg/mL) and anti-human CD2 antibody (2 μg/mL). The plate was shaken gently and cells incubated for 5-10 minutes in an incubator with 37° C. and 5% CO2 to acclimatize. • 1. Cells were pre-incubated for 60 minutes at 37° C. with serial dilutions of Compound (I). This was followed by the addition of Anti-human CD28 antibody (2 μg/mL). • 2. Cells were incubated for 48-72 h in the incubator at 37° C. with 5% CO2. • 3. The plates were spun at 1200 rpm at 4° C. for 12 minutes, supernatant collected and used for IL17 estimation by ELISA.
as §1
Percent Inhibition for each set treated with test compound was calculated by using the formula Percent Inhibition={100−(pg/mL of test compound/pg/mL of induced×100)} and IC50 values were calculated from concentration response curves by nonlinear regression analysis using GraphPad Prism software.

Data set [4] in a line: Particle size distribution, Malvern Mastersizer 2000S, wet dispersion. Format: physicochemical. As to conditions: PSD retested results. How it is done: The particle size distribution studies were performed using Malvern Mastersizer 2000S using wet dispersion method. A sample of about […] of compound (I) was transferred in a beaker, and 2-3 drops of nonidet P-40 and 4-5 drops of water were added to the sample in beaker, and 25-30 ml of water was added and sonicated for 180 seconds with continuous stirring, and the dispersion/solution of compound (I) was added in sample handling unit of Hydro 20000S. The particle size measurement was done using Malvern Mastersizer 2000S.

Where [5] appears, read: particle size data during initial development, listed as A.
Setting [6] is: particle size data during initial development, listed as B.
[7] abbreviates: particle size data during initial development, listed as C.
Where [8] appears, read: particle size data during intermediate development, listed as D.
[9] abbreviates: particle size data during intermediate development, listed as E.
Setting [10] is: particle size data during intermediate development, listed as F.

Turning to `CCc1ccccc1-c1nccnc1-c1ccc(NC(=O)Cc2ccc(C(F)(F)C(C)O)cc2)cc1` (stereo in doubt) [Compound (I), 2-{4-[(2S)-1,1-difluoro-2-hydroxypropyl]phenyl}-N-{4-[3-(2-ethylphenyl)pyrazine-2-yl]phenyl}acetamide], the inhibition – broadly, how much of the control response was suppressed – at 0.0001 µM in the data set with IL-17 [1] (Whole Blood, 0.1 nM, read-out: IL17 A (% Inhibition)) was 0.27%; in the data set on IL-17 [3] (Homo sapiens, COPD-BAL cells, 0.1 nM), 4.97%. Besides, the inhibition at 0.001 µM in the data set on IL-17 [1] (Whole Blood, 1 nM, read-out: IL17 A (% Inhibition)) was determined as 5.57%; in the data set with IL-17 [3] (Homo sapiens, COPD-BAL cells, 1 nM), 2.39%. Moreover, the inhibition at 0.003 µM in the data set on IL-17 [1] (Whole Blood, 3 nM, read-out: IL17 A (% Inhibition)) was determined as 14.9%; with IL-17 [3] (Homo sapiens, COPD-BAL cells, 3 nM), 10.9%. Moreover, the inhibition at 0.01 µM was 15.1% in the data set with IL-17 [1] (Whole Blood, 10 nM, read-out: IL17 A (% Inhibition)) and 13.9% with IL-17 [3] (Homo sapiens, COPD-BAL cells, 10 nM). For the same compound, the inhibition at 0.03 µM came out at 27.6% in the data set with IL-17 [1] (Whole Blood, 30 nM, read-out: IL17 A (% Inhibition)) and 18.7% in the data set on IL-17 [3] (Homo sapiens, COPD-BAL cells, 30 nM). Further, the inhibition at 0.1 µM in the data set with IL-17 [1] (Whole Blood, 100 nM, read-out: IL17 A (% Inhibition)) turned out to be 36.8%; with IL-17 [3] (Homo sapiens, COPD-BAL cells, 100 nM), 41.4%. For the same compound, the inhibition at 0.3 µM in the data set on IL-17 [1] (Whole Blood, 300 nM, read-out: IL17 A (% Inhibition)) was determined as 43.4%; in the data set on IL-17 [3] (Homo sapiens, COPD-BAL cells, 300 nM), 66.8%. In addition, the inhibition at 1 µM was 56.9% in the data set on IL-17 [1] (Whole Blood, 1 uM, read-out: IL17 A (% Inhibition)) and 71.1% in the data set on IL-17 [3] (Homo sapiens, COPD-BAL cells, 1 μM). Further, the inhibition at 3 µM in the data set with IL-17 [1] (Whole Blood, 3 μM, read-out: IL17 A (% Inhibition)) came to 65%; with IL-17 [3] (Homo sapiens, COPD-BAL cells, 3 μM) it was 76.7%. The inhibition at 6 µM turned out to be 69.2% with IL-17 [1] (Whole Blood, 6 μM, read-out: IL17 A (% Inhibition)) and 78.8% with IL-17 [3] (Homo sapiens, COPD-BAL cells, 6 μM). Moreover, the inhibition at 10 µM with IL-17 [1] (Whole Blood, 10 μM, read-out: IL17 A (% Inhibition)) stood at 76.2%; in the data set with IL-17 [3] (Homo sapiens, COPD-BAL cells, 10 μM) it was 81.1%. Moreover, the inhibition at 20 µM in the data set with IL-17 [1] (Whole Blood, 20 μM, read-out: IL17 A (% Inhibition)) stood at 78.8%. The IC50 – broadly, the point on the concentration scale where inhibition reaches its midpoint – with IL-17 [1] (stimulated whole blood from COPD patients, read-out: IC50, IL17 release) was determined as 282 nM; with IL-17 [3] (Homo sapiens), 143 nM; with IL-17 [3] it was 143 nM. For the same compound, in data set [2], the “compatibility with commercially available inhalation grades of lactose monohydrate” value is reported as “compatible”. Also, in the data set with IL-17 [3] (BAL cells, at an ICmax concentration of 1-3 microns), the “inhibition of IL17 release” value is more than 70%.

In data set [4] (setting [5]), `CCc1ccccc1-c1nccnc1-c1ccc(NC(=O)Cc2ccc(C(F)(F)[C@@H](C)O)cc2)cc1` [API Batch A] returned a d10 of 1.222 μm, a d50 of 2.064 μm and a d90 of 3.664 μm.

For `CCc1ccccc1-c1nccnc1-c1ccc(NC(=O)Cc2ccc(C(F)(F)[C@@H](C)O)cc2)cc1` [API Batch B], in data set [4] (setting [6]), the d10 was determined as 0.106 μm, the d50 stood at 1.376 μm and the d90 is recorded as 3.278 μm.

In data set [4] (setting [7]), `CCc1ccccc1-c1nccnc1-c1ccc(NC(=O)Cc2ccc(C(F)(F)[C@@H](C)O)cc2)cc1` [API Batch C] gave a d10 of 1.128 μm, a d50 of 2.010 μm and a d90 of 3.783 μm.

On to `CCc1ccccc1-c1nccnc1-c1ccc(NC(=O)Cc2ccc(C(F)(F)[C@@H](C)O)cc2)cc1` [API Batch D], for which, in data set [4] (setting [8]), the d10 is 0.110 microns, the d50 was determined as 1.510 microns and the d90 is reported as 3.638 microns.

In data set [4] (setting [9]), `CCc1ccccc1-c1nccnc1-c1ccc(NC(=O)Cc2ccc(C(F)(F)[C@@H](C)O)cc2)cc1` [API Batch E] had a d10 of 1.376 microns, a d50 of 2.591 microns and a d90 of 5.060 microns.

In data set [4] (setting [10]), `CCc1ccccc1-c1nccnc1-c1ccc(NC(=O)Cc2ccc(C(F)(F)[C@@H](C)O)cc2)cc1` [API Batch F] came in with a d10 of 1.244 microns, a d50 of 2.383 microns and a d90 of 4.752 microns.
